The record followed here is ChEMBL document CHEMBL4630901 (2021).

The target in assay [1] is D(3) dopamine receptor (Homo sapiens) (UniProt P35462). The conditions noted are these: Compound concentration 10.0 uM.
For assay [2], the target named is 5-hydroxytryptamine receptor 1D (Homo sapiens) (UniProt P28221). The note with it: Compound concentration 10.0 uM.
Assay [3] addresses Prostaglandin F2-alpha receptor (Homo sapiens, UniProt P43088). Kind of assay: Panlabs binding assay.
For assay [4], the target named is 5-hydroxytryptamine receptor 3A (Homo sapiens, UniProt P46098). Kind of assay: GPCRScan assay: inhibition of 5-HT3. Also noted: radioligand conc. used [nm] 1.0 – 2.0, parental cells HEKT.
5-hydroxytryptamine receptor 3A, sequence (P46098 whole entry): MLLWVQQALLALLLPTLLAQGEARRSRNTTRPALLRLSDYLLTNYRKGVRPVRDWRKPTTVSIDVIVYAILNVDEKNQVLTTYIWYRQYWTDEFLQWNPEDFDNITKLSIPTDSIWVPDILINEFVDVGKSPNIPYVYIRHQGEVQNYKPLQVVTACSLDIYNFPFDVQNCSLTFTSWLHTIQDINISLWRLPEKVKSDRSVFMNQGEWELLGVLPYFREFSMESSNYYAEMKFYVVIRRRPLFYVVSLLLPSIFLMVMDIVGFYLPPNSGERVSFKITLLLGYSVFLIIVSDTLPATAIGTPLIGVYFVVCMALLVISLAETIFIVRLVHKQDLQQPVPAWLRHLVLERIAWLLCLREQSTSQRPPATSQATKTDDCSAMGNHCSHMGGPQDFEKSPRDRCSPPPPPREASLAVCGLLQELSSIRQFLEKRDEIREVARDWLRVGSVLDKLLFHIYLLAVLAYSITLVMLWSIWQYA
For assay [5], the target named is T1, 5-hydroxytryptamine receptor 2C (Homo sapiens) (UniProt P28335).
T1 sequence (whole entry): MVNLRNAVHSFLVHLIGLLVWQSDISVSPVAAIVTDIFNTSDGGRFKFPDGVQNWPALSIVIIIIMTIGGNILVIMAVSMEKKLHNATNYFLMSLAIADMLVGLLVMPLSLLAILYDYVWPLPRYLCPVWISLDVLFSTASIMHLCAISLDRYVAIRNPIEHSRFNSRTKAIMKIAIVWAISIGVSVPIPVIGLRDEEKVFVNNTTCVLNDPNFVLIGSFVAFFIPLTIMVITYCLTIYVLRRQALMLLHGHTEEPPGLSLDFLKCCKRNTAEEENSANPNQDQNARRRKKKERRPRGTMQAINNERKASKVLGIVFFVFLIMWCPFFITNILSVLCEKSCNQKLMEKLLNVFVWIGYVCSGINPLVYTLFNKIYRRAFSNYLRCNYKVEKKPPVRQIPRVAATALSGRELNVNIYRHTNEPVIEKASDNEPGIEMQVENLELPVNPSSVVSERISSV
The note with it: Compound concentration 10.0 uM.

Assay [6] deals with Glucocorticoid receptor (Homo sapiens) (UniProt P04150). The note with it: Compound concentration 10.0 uM.
Glucocorticoid receptor (Homo sapiens), sequence (P04150 whole entry): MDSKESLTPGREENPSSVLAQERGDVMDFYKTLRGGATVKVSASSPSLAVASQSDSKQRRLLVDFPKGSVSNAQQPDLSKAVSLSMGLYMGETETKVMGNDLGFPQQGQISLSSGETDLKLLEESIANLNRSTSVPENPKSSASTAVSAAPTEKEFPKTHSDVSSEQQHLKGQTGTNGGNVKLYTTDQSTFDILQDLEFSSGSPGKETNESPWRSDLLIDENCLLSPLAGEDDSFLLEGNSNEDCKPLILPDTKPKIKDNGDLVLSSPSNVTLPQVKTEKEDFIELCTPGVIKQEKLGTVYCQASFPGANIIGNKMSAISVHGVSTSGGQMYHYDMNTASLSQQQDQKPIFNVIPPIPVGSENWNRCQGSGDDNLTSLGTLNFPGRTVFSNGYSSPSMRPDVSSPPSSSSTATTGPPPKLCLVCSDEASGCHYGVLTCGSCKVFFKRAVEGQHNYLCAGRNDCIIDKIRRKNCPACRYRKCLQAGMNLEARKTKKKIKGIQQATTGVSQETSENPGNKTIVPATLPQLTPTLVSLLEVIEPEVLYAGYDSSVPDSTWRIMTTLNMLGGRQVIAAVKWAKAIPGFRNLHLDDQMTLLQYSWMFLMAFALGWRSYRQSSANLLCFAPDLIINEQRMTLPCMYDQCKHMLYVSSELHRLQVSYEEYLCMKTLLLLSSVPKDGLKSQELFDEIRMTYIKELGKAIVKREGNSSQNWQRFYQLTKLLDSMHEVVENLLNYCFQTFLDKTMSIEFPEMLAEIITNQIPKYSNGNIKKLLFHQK
Assay [7] has as its target D(1A) dopamine receptor (Homo sapiens) (UniProt P21728). The note with it: Compound concentration 10.0 uM.
For assay [8], the target named is Growth hormone secretagogue receptor type 1 (Homo sapiens) (UniProt Q92847). The note with it: Compound concentration 10.0 uM.
Growth hormone secretagogue receptor type 1 (Homo sapiens), sequence (Q92847 whole entry): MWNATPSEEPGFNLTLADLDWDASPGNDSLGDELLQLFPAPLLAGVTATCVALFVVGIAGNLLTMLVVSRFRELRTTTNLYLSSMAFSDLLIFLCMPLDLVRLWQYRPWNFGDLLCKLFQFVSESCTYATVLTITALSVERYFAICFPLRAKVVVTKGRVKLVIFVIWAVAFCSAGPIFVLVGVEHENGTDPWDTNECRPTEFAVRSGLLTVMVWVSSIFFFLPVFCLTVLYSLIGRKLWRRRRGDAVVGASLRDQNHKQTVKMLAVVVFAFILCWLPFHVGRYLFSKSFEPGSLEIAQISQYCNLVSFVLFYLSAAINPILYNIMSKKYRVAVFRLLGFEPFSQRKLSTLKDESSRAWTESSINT
The target in assay [9] is Histamine H3 receptor (Homo sapiens) (UniProt Q9Y5N1). The conditions noted are these: Compound concentration 10.0 uM.
Histamine H3 receptor (Homo sapiens), sequence (Q9Y5N1 whole entry): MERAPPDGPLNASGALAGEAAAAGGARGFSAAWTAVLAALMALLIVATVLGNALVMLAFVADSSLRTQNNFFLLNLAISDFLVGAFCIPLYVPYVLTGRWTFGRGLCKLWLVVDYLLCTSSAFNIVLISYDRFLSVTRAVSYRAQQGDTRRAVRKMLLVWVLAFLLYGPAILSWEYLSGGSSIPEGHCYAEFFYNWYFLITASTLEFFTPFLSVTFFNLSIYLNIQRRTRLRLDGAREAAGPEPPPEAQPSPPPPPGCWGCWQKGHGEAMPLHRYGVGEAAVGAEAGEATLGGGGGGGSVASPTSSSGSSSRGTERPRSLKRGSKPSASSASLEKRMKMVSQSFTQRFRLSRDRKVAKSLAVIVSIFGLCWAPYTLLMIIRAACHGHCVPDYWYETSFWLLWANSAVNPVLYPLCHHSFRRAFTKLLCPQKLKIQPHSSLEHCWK
For assay [10], the target named is Adenosine receptor A1 (Homo sapiens) (UniProt P30542). The note with it: Compound concentration 10.0 uM.
Assay [11] deals with Cannabinoid receptor 2 (Homo sapiens) (UniProt P34972). The conditions noted are these: Compound concentration 10.0 uM.
The species entered for a further assay is Homo sapiens. Kind of assay: Inhibition of Nicotinic Acetylcholine at compound concentration of 10.0 uM in the Eurofins-Panlabs radioligand binding assay (Eurofins_assay_258590). The conditions noted are these: Compound concentration 10.0 uM. The class given is protein-complex assay.
Assay [12] addresses T2, GABA-A receptor; anion channel (Rattus norvegicus) (UniProt O09028+P15431+P18506+P18508+P19969+P20236+P23574+P23576+P28471+P28473+P30191+P62813+P63079+P63138+Q91ZM7+Q9ES14). The conditions noted are these: Compound concentration 10.0 uM.
Assay [13] concerns the target Adenosine receptor A3 (Homo sapiens) (UniProt P0DMS8). The conditions noted are these: Compound concentration 10.0 uM.
Assay [14] has as its target B2 bradykinin receptor (Homo sapiens) (UniProt P30411). The conditions noted are these: Compound concentration 10.0 uM.
Assay [15] addresses T3, Muscarinic acetylcholine receptor M2 (Homo sapiens) (UniProt P08172).
T3 sequence (whole entry): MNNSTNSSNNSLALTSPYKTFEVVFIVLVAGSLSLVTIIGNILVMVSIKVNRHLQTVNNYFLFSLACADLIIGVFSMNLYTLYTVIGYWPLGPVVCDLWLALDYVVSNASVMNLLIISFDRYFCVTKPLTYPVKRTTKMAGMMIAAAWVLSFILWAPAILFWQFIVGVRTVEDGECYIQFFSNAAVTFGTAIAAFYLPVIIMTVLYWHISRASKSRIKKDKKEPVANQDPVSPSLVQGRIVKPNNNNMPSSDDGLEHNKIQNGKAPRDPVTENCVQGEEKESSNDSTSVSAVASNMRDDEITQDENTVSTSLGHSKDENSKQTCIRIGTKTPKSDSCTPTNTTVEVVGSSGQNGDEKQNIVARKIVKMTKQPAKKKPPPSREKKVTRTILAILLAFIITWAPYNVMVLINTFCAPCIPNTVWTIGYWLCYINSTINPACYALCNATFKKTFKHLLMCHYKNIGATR
The note with it: Compound concentration 10.0 uM.

For assay [16], the target named is Beta-3 adrenergic receptor (Homo sapiens) (UniProt P13945). The conditions noted are these: Compound concentration 10.0 uM.
Beta-3 adrenergic receptor (Homo sapiens), sequence (P13945 whole entry, looked up): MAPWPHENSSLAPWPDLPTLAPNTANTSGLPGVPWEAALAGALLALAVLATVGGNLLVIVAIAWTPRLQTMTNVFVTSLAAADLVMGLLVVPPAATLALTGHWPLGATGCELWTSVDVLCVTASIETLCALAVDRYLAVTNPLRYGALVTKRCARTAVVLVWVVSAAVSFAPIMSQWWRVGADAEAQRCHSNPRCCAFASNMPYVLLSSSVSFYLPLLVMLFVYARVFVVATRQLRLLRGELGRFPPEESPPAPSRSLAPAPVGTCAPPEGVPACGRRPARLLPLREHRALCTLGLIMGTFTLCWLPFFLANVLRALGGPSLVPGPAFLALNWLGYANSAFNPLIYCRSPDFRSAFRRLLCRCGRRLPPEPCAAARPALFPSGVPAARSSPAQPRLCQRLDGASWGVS
Assay [17] addresses Beta-1 adrenergic receptor (Homo sapiens) (UniProt P08588). The conditions noted are these: Compound concentration 10.0 uM.
For assay [18], the target named is Gamma-aminobutyric acid type B receptor subunit 1 (Homo sapiens) (UniProt Q9UBS5). The conditions noted are these: Rattus norvegicus; Compound concentration 10.0 uM.
Gamma-aminobutyric acid type B receptor subunit 1 (Homo sapiens), sequence (Q9UBS5 whole entry): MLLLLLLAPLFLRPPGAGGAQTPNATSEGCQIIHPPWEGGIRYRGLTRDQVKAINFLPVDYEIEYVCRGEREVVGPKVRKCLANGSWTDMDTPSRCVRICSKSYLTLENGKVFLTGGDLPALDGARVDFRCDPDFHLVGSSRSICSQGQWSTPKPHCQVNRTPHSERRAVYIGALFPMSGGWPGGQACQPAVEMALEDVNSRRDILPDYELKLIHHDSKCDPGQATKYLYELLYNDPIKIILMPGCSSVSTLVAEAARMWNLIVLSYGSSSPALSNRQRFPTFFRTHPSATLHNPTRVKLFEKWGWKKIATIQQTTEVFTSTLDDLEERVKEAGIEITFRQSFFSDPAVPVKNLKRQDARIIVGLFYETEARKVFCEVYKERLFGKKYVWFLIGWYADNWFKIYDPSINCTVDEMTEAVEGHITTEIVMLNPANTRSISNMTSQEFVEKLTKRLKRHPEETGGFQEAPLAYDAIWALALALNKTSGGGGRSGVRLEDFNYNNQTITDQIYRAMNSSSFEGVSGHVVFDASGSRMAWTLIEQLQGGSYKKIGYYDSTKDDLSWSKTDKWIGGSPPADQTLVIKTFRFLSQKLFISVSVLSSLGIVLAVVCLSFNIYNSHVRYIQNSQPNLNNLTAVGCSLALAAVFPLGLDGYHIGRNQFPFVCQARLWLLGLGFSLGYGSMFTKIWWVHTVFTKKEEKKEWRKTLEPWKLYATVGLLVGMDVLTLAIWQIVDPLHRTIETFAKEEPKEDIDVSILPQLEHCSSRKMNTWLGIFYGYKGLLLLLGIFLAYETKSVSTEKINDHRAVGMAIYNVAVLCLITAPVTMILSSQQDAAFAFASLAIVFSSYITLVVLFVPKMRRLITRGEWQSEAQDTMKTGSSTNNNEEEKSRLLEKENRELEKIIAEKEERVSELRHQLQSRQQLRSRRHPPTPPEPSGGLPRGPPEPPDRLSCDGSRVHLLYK
The target of assay [19] is T4, Prostaglandin D2 receptor 2 (Homo sapiens) (UniProt Q9Y5Y4).
T4 sequence (whole entry): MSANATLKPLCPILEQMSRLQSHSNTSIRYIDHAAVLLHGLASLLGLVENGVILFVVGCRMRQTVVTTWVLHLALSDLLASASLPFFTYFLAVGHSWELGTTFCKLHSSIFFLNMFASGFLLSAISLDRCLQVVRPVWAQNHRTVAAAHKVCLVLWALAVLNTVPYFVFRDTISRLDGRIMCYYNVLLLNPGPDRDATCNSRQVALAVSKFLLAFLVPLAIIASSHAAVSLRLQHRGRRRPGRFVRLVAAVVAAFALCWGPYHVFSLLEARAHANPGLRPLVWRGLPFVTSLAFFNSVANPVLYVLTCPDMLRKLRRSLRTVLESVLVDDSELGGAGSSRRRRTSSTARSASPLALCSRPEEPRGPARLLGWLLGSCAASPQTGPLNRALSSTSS
Kind of assay: Prostanoid CRTH2 Eurofins-Panlabs radioligand binding assay. The arrangement: ligand concentration 1 nM.

In assay [20] the target is T2, GABA-A receptor; anion channel (Rattus norvegicus). The conditions noted are these: Compound concentration 10.0 uM. The source holds these as a separate data set.
Assay [21] addresses Purinergic P2Y (Rattus norvegicus) (UniProt O35811+Q9EPX4+P49651+Q63371+P41232+O35881+Q6GUG4). The note with it: Compound concentration 10.0 uM.
For assay [22], the target named is Glutamate receptor 2 (Homo sapiens) (UniProt P42262). The conditions noted are these: Rattus norvegicus; Compound concentration 10.0 uM.

The inhibition is the change of the read-out against control, counted positive when it falls. By IC50 is commonly meant the concentration that inhibits the measured activity by half. The low end stands for greater potency, the high end for weaker potency.

Some results are limits rather than exact numbers.

Prostaglandin F2-alpha receptor, sequence (P43088 whole entry): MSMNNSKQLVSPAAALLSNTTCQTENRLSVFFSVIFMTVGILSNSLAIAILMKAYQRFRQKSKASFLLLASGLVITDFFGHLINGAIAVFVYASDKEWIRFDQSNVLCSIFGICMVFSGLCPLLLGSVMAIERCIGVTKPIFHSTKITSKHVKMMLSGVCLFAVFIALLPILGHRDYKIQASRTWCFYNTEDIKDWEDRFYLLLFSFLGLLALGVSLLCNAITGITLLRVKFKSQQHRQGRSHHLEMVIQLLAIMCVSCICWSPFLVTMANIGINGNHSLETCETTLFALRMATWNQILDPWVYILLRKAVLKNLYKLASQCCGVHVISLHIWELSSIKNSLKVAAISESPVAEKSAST
Beta-1 adrenergic receptor (Homo sapiens), sequence (P08588 whole entry, looked up): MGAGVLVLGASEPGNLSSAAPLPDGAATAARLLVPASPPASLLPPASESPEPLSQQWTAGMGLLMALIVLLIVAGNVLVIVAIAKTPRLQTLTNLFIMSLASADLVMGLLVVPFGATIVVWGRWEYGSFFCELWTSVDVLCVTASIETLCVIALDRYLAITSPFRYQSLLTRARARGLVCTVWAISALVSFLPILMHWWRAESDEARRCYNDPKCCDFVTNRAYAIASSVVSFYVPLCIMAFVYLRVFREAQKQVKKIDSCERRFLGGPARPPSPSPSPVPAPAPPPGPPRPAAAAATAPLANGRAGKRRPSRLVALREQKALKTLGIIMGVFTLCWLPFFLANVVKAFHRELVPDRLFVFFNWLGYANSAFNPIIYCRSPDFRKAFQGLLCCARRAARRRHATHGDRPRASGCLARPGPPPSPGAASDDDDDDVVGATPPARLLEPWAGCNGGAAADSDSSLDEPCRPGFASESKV
Adenosine receptor A3 (Homo sapiens), sequence (P0DMS8 whole entry): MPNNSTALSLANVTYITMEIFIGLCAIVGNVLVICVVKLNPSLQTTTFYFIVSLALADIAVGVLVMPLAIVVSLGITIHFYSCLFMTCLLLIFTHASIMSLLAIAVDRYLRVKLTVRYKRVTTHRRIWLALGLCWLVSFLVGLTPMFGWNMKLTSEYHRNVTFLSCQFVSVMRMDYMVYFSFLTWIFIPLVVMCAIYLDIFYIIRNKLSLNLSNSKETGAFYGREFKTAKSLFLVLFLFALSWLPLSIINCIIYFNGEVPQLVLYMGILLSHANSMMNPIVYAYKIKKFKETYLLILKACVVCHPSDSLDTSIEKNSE
B2 bradykinin receptor (Homo sapiens), sequence (P30411 whole entry): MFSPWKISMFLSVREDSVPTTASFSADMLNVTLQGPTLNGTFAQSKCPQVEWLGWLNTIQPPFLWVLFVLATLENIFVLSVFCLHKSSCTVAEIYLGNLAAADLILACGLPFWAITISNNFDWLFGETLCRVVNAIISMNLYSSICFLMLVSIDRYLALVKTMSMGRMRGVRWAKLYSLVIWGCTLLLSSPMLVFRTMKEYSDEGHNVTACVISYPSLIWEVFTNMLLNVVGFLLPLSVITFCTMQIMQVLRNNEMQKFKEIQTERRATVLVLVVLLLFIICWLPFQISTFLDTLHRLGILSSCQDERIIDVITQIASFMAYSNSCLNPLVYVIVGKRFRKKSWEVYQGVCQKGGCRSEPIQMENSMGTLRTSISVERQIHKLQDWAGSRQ

`Cc1c(N2CCNCC2)nc2ccc(Br)cc2c1C(=O)NC[C@H](CCC(=O)O)c1ccccc1Cl` [BAY-403]: the inhibition in assay [1] was 3.81%; in assay [2], 9.12%. Moreover, the half-inhibitory concentration (IC50) in assay [3] is recorded as > 10 µM (not active). Moreover, the Ki in assay [4] (read-out: Ki) was 0.585 µM; in assay [4] (read-out: pKi (converted)), 0.537 µM.
For `Cc1c(N2CCCC2)nc2ccc(Br)cc2c1C(=O)NC[C@H](CCC(=O)O)c1ccccc1Cl` [BAY-6672], the inhibition in [5] is 16%; in [6], 11%; in assay [7], 1%; in [8], 3%; in assay [9], -0%; in [10], 5%. Besides, the inhibition in assay [11] was 13%; in the assay listed under Homo sapiens it was 3%; in assay [12] it was 26%; in [13], 15%; in [14], -6%; in [15], 3%. Besides, the inhibition is 21.6% in assay [16]; 3% in assay [17]; -4% in assay [18]; 3% in assay [19] (Compound concentration 0.001 uM); 2% in assay [19] (Compound concentration 0.01 uM); -3% in assay [19] (Compound concentration 0.1 uM). For the same compound, the inhibition in [19] (Compound concentration 1.0 uM) is -6%; in assay [19] (Compound concentration 10.0 uM), 19%; in assay [20], 6%; in assay [21], 5%; in [22], -3%.
